From patent publication US20120309709A1, “Ion-Channel Regulator Compositions and Methods of Using Same” (priority 2007, published 2012) come the findings set out here.

SMILES strings stand for the structures. Where “and” joins values, the source holds several entries; their conditions need not be identical. Equal entries are not always repeated. Where two headings read alike, the source gives them in different places.

For data set [1], the system named is cells in the synovial tissue. Kind of data set: Trypan blue exclusion test on synovial tissue. The note with it: Examples 1-4. The protocol: Multiple samples of synovial tissue, each approximately 20 mg, were obtained from a person with osteoarthritis (grade IV, Kellgren-Lawrence scale).
Data set [2] deals with MMPs produced by synovial tissue in response to IL-1β. The note with it: for activity of the MMPs, % of that measured in tissues not exposed to the regulator: IL-1β alone = 100%.
The mark [3] stands for this setting: Example 1, person, regulator 0.01 mg/mL.
Where [4] appears, read: Example 1, person, regulator 0.05 mg/mL.
Where [5] appears, read: Example 2, person, regulator 0.01 mg/mL.
The mark [6] stands for this setting: Example 2, person, regulator 0.05 mg/mL.
Setting [7] is: Example 3, person, regulator 0.01 mg/mL.
The mark [8] stands for this setting: Example 3, person, regulator 0.05 mg/mL.
[9] abbreviates: Example 4, person, regulator 0.01 mg/mL.
The mark [10] stands for this setting: Example 4, person, regulator 0.05 mg/mL.
The mark [11] stands for this setting: Example 5, person, single regulator 0.1 mg/mL.
Where [12] appears, read: Example 6, person, single regulator 0.1 mg/mL.
The mark [13] stands for this setting: Example 7, person, single regulator 0.1 mg/mL.

In the case of `COc1ccc([C@@H]2Sc3ccccc3N(CCN(C)C)C(=O)[C@@H]2OC(C)=O)cc1` [diltiazem], the “concentration at which death of cells in the synovial tissue was observed” value in data set [1] is on record as “above 0.1 mg/mL”. For the same compound, the “activity of the MMPs, % of that measured in tissues not exposed to the regulator” value in data set [2] (setting [3]) worked out at 97%; in data set [2] (setting [4]) it was 27.1%; in data set [2] (setting [5]), 99%; in data set [2] (setting [6]) it was 35.7%; in data set [2] (setting [7]), 97%; in data set [2] (setting [8]), 24.7%. Also, the “activity of the MMPs, % of that measured in tissues not exposed to the regulator” value was 98.1% in data set [2] (setting [9]); 22.6% in data set [2] (setting [10]); 24.8% in data set [2] (setting [11]); 29.8% in data set [2] (setting [12]); 34.3% in data set [2] (setting [13]). Also, the “effect on blocking MMP activity of further increasing the concentration” value in data set [2] (Examples 1-4, concentration increased from 0.05 mg/mL up to 0.1 mg/mL, compared with level at 0.05 mg/mL) is “no further effect”.
As for `COc1ccc(CCN(C)CCCC(C#N)(c2ccc(OC)c(OC)c2)C(C)C)cc1OC` (stereo not shown) [verapamil], the “concentration at which death of cells in the synovial tissue was observed” value in data set [1] was “above 0.1 mg/mL”. Moreover, the “activity of the MMPs, % of that measured in tissues not exposed to the regulator” value in data set [2] (setting [3]) is 38%; in data set [2] (setting [4]) it was 18.9%; in data set [2] (setting [5]), 37.2%; in data set [2] (setting [6]), 21.5%; in data set [2] (setting [7]), 37%; in data set [2] (setting [8]) it was 23.2%. The “activity of the MMPs, % of that measured in tissues not exposed to the regulator” value in data set [2] (setting [9]) was 35%; in data set [2] (setting [10]), 13.6% and 13.1%; in data set [2] (setting [11]) it was 16%; in data set [2] (setting [12]) it was 21.9%; in data set [2] (setting [13]), 17.4%.
